Assay [1] has as its system Human lung carcinoma cell line A549. The experiment in a line: MTT Cell Proliferation Assay, A549 cells. Type of assay: cell-based. Conditions: for IC50: A549 cells, MTT, 72 hours post-treatment; for IC50 Ratio (A549/H1975): ratio of IC50 in A549 to IC50 in H1975.
Method: (§1) Human lung carcinoma cell line A549 plates were seeded with 2,500 cells/well, and the cells were grown in Ham's F12 medium containing 10% FBS and 1% penicillin/strep/glutamine. Cultures were maintained in a 37° C. humidified 5% CO2/95% air atmosphere. Stock cultures were allowed to grow to 70-80% confluence for this study. […] 1000 μl of medium was removed from each well at 72 hours post-treatment and 10 μl MTT reagent was added to each well. The plates were incubated at 37° C. for 4 hours and then 100 μl of detergent was added. The plates were left overnight at room temperature in the dark and was read on a plate reader using SoftMax® Pro (version 5.2, Molecular Devices).
The absorbance data was analyzed as follows: Absorbance values were converted to Percent of Control and plotted against test agent concentrations for IC50 calculations using SoftMax® Pro (version 5.2, Molecular Devices). The plate blank signal average was subtracted from all wells prior to calculating the Percent of Control. Percent of Control values were calculated by dividing the absorbance values for each test well by the No Drug Control average (column 11 values; cells+vehicle control) and multiplying by 100. Plots of Compound Concentration versus Percent of Control were analyzed using the 4-parameter equation to obtain IC50 values and other parameters that describe the sigmoidal dose response curve.
The IC50 values for the test agents were estimated by curve-fitting the data using the following four parameter-logistic equation:
wherein “Top” is the maximal % of control absorbance (100%), “Bottom” is the minimal % of control absorbance at the highest agent concentration (down to zero), Y is the Percent of Control absorbance, X is the test agent Concentration, IC50 is the concentration of agent that inhibits cell growth by 50% compared to the control cells, n is the slope of the curve.
Assay [2] has as its system Non-Small Cell Lung Cancer. The experiment in a line: Human clinical trial (US), refractory lung cancer patients. Type of assay: in vivo. To be noted: 320 mg/m^2 i.v. day 1, 8, 15 of 28-day cycle, 4 cycles. As to the method:
Patient No. 04-005 was a person with Stage IV Non-Small Cell Lung Cancer, moderately differentiated adenocarcinoma histology, diagnosed in April 2006. […] Combination chemotherapy with docetaxel, carboplatin and bevacizumab was administered between September and December 2006, with which the patient achieved a complete response. The patient suffered a disease recurrence and was started on sorafenib in April 2008. Sorafenib was discontinued in May 2008 due to disease progression. […] Between November 2009 and January 2010, the patient received gemcitibine.
Patient No. 04-011 was a person with Stage IIIB Non-Small Cell Lung Cancer, poorly differentiated adenocarcinoma histology, diagnosed in January 2005. Initial therapy consisted of carboplatin, gemcitibine and zoledronic acid from January 2005 through August 2005, with a partial response. […] In December 2005, chest radiotherapy with 54 Gy, with paclitaxel radiosensitization, was initiated and completed by February 2006. Through the remainder of 2006, the patient received a course of single agent erlotinib and a course of single agent pemetrexed; best response to these therapies is unknown. In January 2007, combination therapy with gemcitibine and navelbine was initiated, but their best response was disease progression. Experimental therapy with PTK787 (vatalanib) and imatinib was initiated in February 2007. […]

Assay [3] deals with Human malignant melanoma cell line G361. The experiment in a line: MTT Cell Proliferation Assay, G361 cells. Conditions: read-out: IC50 (concentration of agent that inhibits cell growth by 50%).
Method: as §1
The absorbance data was analyzed as follows: Absorbance values were converted to Percent of Control and plotted against test agent concentrations for IC50 calculations using SoftMax® Pro (version 5.2, Molecular Devices). The plate blank signal average was subtracted from all wells prior to calculating the Percent of Control. Percent of Control values were calculated by dividing the absorbance values for each test well by the No Drug Control average (column 11 values; cells+vehicle control) and multiplying by 100. Plots of Compound Concentration versus Percent of Control were analyzed using the 4-parameter equation to obtain IC50 values and other parameters that describe the sigmoidal dose response curve. […]
Assay [4] deals with human lung carcinoma cell line H1975. The experiment in a line: MTT Cell Proliferation Assay, H1975 cells. Type of assay: cell-based. How it is done:
(“Test Drug”) was 41 μM (FIG. 1).
Table 2 below summarizes the activities on the two compounds in the different lung cancer cell lines tested.

The test system of assay [5] is colorectal adenocarcinoma. The experiment in a line: Human clinical trial (UK), refractory colorectal cancer patient. Type of assay: in vivo. Conditions: person, colorectal adenocarcinoma failed oxaliplatin, capecitibine, cetuximab, irinotecan, panitumumab; 500 mg/m^2 i.v. daily days 1-4 of 21-day cycle, 4 cycles. The text has this:
The trial enrolled a person with colorectal adenocarcinoma, adenocystic histology, incompletely resected in September 2007. Their initial therapy consisted of oxaliplatin, capecitibine and cetuximab between October 2007 and February 2009 with best response of progressive disease. […] They then were changed to irinotecan and panitumumab, administered between April 2009 and October 2009, again with best response progressive disease.

The test system of assay [6] is human lung carcinoma cell line H1975. Conditions: T790M mutation in the EGFR gene; Bao et al. 2009; cited from earlier work.
The subject of assay [7] is A549 cells. To be noted: Denlinger et al. 2004; cited from earlier work.

Each structure is given as a SMILES string. Read-outs that look alike come from different tables or passages of the source.

As for `[Cl][Ru-]([Cl])([Cl])[Cl].[Na+].c1ccc2[nH]ncc2c1.c1ccc2[nH]ncc2c1`, the IC50 stood at 9.9 µM in assay [1]; 41 µM in assay [3] (G361 melanoma cells, MTT, 72 hours post-treatment); 33.6 µM in assay [4] (72 hours post-treatment). Moreover, the “IC50 Ratio (A549/H1975)” value in assay [1] is listed as 0.29. The best response result in assay [2] (Patient No. 04-005, Stage IV NSCLC) was “stable disease”; in assay [2] (Patient No. 04-011, Stage IIIB NSCLC), “stable disease”; in assay [5], “stable disease”.
In the case of `CC(=O)O[C@H]1C(=O)[C@@]2(C)[C@H]([C@H](OC(=O)c3ccccc3)[C@]3(O)C[C@H](OC(=O)[C@H](O)[C@@H](NC(=O)c4ccccc4)c4ccccc4)C(C)=C1C3(C)C)[C@]1(OC(C)=O)CO[C@@H]1C[C@@H]2O` [Paclitaxel, paclitaxel], the IC50 worked out at 9.92 µM in assay [1] (Homo sapiens) and 0.005 µM in assay [4] (Homo sapiens, NCI-H1975, 72 hours post-treatment). In addition, the “IC50 Ratio (A549/H1975)” value in assay [1] stood at 1984.
For `C#Cc1cccc(Nc2ncnc3cc(OCCOC)c(OCCOC)cc23)c1` [erlotinib], the “sensitivity of H1975 cells” value in assay [6] is “resistant”.
As for `COc1cc2ncnc(Nc3ccc(F)c(Cl)c3)c2cc1OCCCN1CCOCC1` [gefitinib], in assay [6], the “sensitivity of H1975 cells” value is recorded as “resistant”.
For the molecule `Nc1ccn([C@@H]2O[C@H](CO)[C@@H](O)C2(F)F)c(=O)n1` [gemcitabine], the “sensitivity of A549 cells” value in assay [7] was “inherently resistant”.
`Cn1nnc2c(C(N)=O)ncn2c1=O` [temozolomide]: the IC50 in assay [3] (Homo sapiens, G-361, 72 h) was determined as 199 µM.

These data come from patent publication US20130338129A1, “METHOD OF TREATING REFRACTORY CANCER” (Niiki Pharma Inc., priority 2010, published 2013).
